Measured values as given in patent US11274332B2, “Methods of administering 3,4-diaminopyridine” (SERB SA, priority 2011, dated 2022).
Several values for one entry are separate records, joined by “and”; a condition that tells them apart may be missing. Identical values can stand only once.

Assay: Food-effect crossover study, adverse events after single 20 mg amifampridine phosphate in healthy subjects (Examples 10, 11)
Type: in vivo
Description: This was a randomized, open-label, 2-treatment, 2-period crossover study with 44 completed subjects to assess the safety, tolerability, and the effect of food on the relative bioavailability of a single dose of amifampridine phosphate.
Safety was evaluated for all subjects who take at least one dose of 3,4-DAP. Safety was evaluated by recording the incidence of adverse events (AEs), physical examination, vital signs, concomitant medications, clinical laboratory assessments, and 12-lead electrocardiogram (ECG).
Analysis for the following safety parameters was carried out on the Safety Population: AEs which included all AEs, AEs by severity, drug-related AEs, deaths, SAEs, AEs leading to study discontinuation, and most frequent AEs, standard clinical laboratory tests, vital signs, ECG measurements, routine physical examinations, and prior and concomitant medications. The cut-off for frequency of AEs reported was determined based on the data. No formal statistical testing was performed for the safety analyses; only descriptive statistics were provided. Appropriate descriptive statistics for the safety data were determined using SAS Version 9.2.
AEs were coded according to the Medical Dictionary for Regulatory Activities (MedDRA; Version 13.0). […] The occurrence of AEs was assessed continuously from the time the subject signed the VID and consent. The reporting period for non-serious AEs was from the first dose to the final study visit. The investigator determined the severity of each event and the relationship of an AE to the IP and recorded it on the source documents and AE CRF. The nature, time of onset, duration, severity, and relationship to study drug was documented, including documentation of investigator assessment and review. All events were assessed to determine if the AE was serious.
The Investigator determined the severity of each event and the event was recorded on the source documents and AE CRF. A coding of “mild” meant there was no limitation of usual activities, “moderate” meant there was some limitation of usual activities, “severe” meant there was an inability to carry out usual activities.
The reporting period for AEs that met the criteria of an SAE began from the time of signing the VID and consent form through follow-up or early termination. […] Clinical Laboratory Assessments

Nc1ccncc1N.O=P(O)(O)O [amifampridine phosphate, 3,4-diaminopyridine phosphate]
Abdominal Pain Upper, drug-related AE: % of subjects (Fasted N=45): 4%
Abdominal Pain Upper, drug-related AE: events (Fasted N=45): 2
Abdominal Pain Upper, drug-related AE: subjects (Fasted N=45): 2
Abdominal Pain, drug-related AE: % of subjects (Fasted N=45): 7%
Abdominal Pain, drug-related AE: events (Fasted N=45): 3
Abdominal Pain, drug-related AE: subjects (Fasted N=45): 3
Abdominal Tenderness, drug-related AE: % of subjects (Fasted N=45): 2%
Abdominal Tenderness, drug-related AE: events (Fasted N=45): 1
Abdominal Tenderness, drug-related AE: subjects (Fasted N=45): 1
Acne, drug-related AE: % of subjects (Fasted N=45): 2%
Acne, drug-related AE: events (Fasted N=45): 1
Acne, drug-related AE: subjects (Fasted N=45): 1
All treatment emergent AEs, Mild: % of subjects (Fasted N=45): 53%
All treatment emergent AEs, Mild: events (Fasted N=45): 60
All treatment emergent AEs, Mild: subjects (Fasted N=45): 24
All treatment emergent AEs, Moderate: % of subjects (Fasted N=45): 2%
All treatment emergent AEs, Moderate: events (Fasted N=45): 1
All treatment emergent AEs, Moderate: subjects (Fasted N=45): 1
All treatment emergent AEs, Severe: % of subjects (Fasted N=45): (0%) [0]
All treatment emergent AEs, Severe: events (Fasted N=45): (0%) [0]
All treatment emergent AEs, Severe: subjects (Fasted N=45): 0
All treatment emergent AEs, Total: events (Fasted N=45): 61
Constipation, drug-related AE: % of subjects (Fasted N=45): (0%) [0]
Constipation, drug-related AE: events (Fasted N=45): (0%) [0]
Constipation, drug-related AE: subjects (Fasted N=45): 0
Diarrhoea, drug-related AE: % of subjects (Fasted N=45): 2%
Diarrhoea, drug-related AE: events (Fasted N=45): 1
Diarrhoea, drug-related AE: subjects (Fasted N=45): 1
Discontinued due to adverse events: % of subjects (Fasted N=45): (0%) [0]
Discontinued due to adverse events: events (Fasted N=45): (0%) [0]
Discontinued due to adverse events: subjects (Fasted N=45): 0
Dizziness, drug-related AE: % of subjects (Fasted N=45): 11%
Dizziness, drug-related AE: events (Fasted N=45): 5
Dizziness, drug-related AE: subjects (Fasted N=45): 5
Dysgeusia, drug-related AE: % of subjects (Fasted N=45): 2%
Dysgeusia, drug-related AE: events (Fasted N=45): 1
Dysgeusia, drug-related AE: subjects (Fasted N=45): 1
Fatigue, drug-related AE: % of subjects (Fasted N=45): 2%
Fatigue, drug-related AE: events (Fasted N=45): 1
Fatigue, drug-related AE: subjects (Fasted N=45): 1
Feeling Hot, drug-related AE: % of subjects (Fasted N=45): 2%
Feeling Hot, drug-related AE: events (Fasted N=45): 1
Feeling Hot, drug-related AE: subjects (Fasted N=45): 1
Flushing, drug-related AE: % of subjects (Fasted N=45): (0%) [0]
Flushing, drug-related AE: events (Fasted N=45): (0%) [0]
Flushing, drug-related AE: subjects (Fasted N=45): 0
Gastrointestinal Disorders Total, drug-related AE: % of subjects (Fasted N=45): 16%
Gastrointestinal Disorders Total, drug-related AE: events (Fasted N=45): 10
Gastrointestinal Disorders Total, drug-related AE: subjects (Fasted N=45): 7
General Disorders and Administration Site Conditions Total, drug-related AE: % of subjects (Fasted N=45): 4%
General Disorders and Administration Site Conditions Total, drug-related AE: events (Fasted N=45): 2
General Disorders and Administration Site Conditions Total, drug-related AE: subjects (Fasted N=45): 2
Headache, drug-related AE: % of subjects (Fasted N=45): 9%
Headache, drug-related AE: events (Fasted N=45): 4
Headache, drug-related AE: subjects (Fasted N=45): 4
Hypoaesthesia Facial, drug-related AE: % of subjects (Fasted N=45): 2%
Hypoaesthesia Facial, drug-related AE: events (Fasted N=45): 1
Hypoaesthesia Facial, drug-related AE: subjects (Fasted N=45): 1
Hypoaesthesia Oral, drug-related AE: % of subjects (Fasted N=45): 7%
Hypoaesthesia Oral, drug-related AE: events (Fasted N=45): 3
Hypoaesthesia Oral, drug-related AE: subjects (Fasted N=45): 3
Hypoaesthesia, drug-related AE: % of subjects (Fasted N=45): 4%
Hypoaesthesia, drug-related AE: events (Fasted N=45): 2
Hypoaesthesia, drug-related AE: subjects (Fasted N=45): 2
Nausea, drug-related AE: % of subjects (Fasted N=45): 7%
Nausea, drug-related AE: events (Fasted N=45): 3
Nausea, drug-related AE: subjects (Fasted N=45): 3
Nervous System Disorders Total, drug-related AE: % of subjects (Fasted N=45): 47%
Nervous System Disorders Total, drug-related AE: events (Fasted N=45): 43
Nervous System Disorders Total, drug-related AE: subjects (Fasted N=45): 21
Paraesthesia Oral, drug-related AE: % of subjects (Fasted N=45): 29%
Paraesthesia Oral, drug-related AE: events (Fasted N=45): 15
Paraesthesia Oral, drug-related AE: subjects (Fasted N=45): 13
Paraesthesia, drug-related AE: % of subjects (Fasted N=45): 22%
Paraesthesia, drug-related AE: events (Fasted N=45): 12
Paraesthesia, drug-related AE: subjects (Fasted N=45): 10
Possibly or probably related AEs, Mild: % of subjects (Fasted N=45): 47%
Possibly or probably related AEs, Mild: events (Fasted N=45): 55
Possibly or probably related AEs, Mild: subjects (Fasted N=45): 21
Possibly or probably related AEs, Moderate: % of subjects (Fasted N=45): 2%
Possibly or probably related AEs, Moderate: events (Fasted N=45): 1
Possibly or probably related AEs, Moderate: subjects (Fasted N=45): 1
Possibly or probably related AEs, Severe: % of subjects (Fasted N=45): (0%) [0]
Possibly or probably related AEs, Severe: events (Fasted N=45): (0%) [0]
Possibly or probably related AEs, Severe: subjects (Fasted N=45): 0
Possibly or probably related AEs, Total: % of subjects (Fasted N=45): 47%
Possibly or probably related AEs, Total: events (Fasted N=45): 56
Possibly or probably related AEs, Total: subjects (Fasted N=45): 21
Serious adverse events: % of subjects (Fasted N=45): (0%) [0]
Serious adverse events: events (Fasted N=45): (0%) [0]
Serious adverse events: subjects (Fasted N=45): 0
Skin and Subcutaneous Tissue Disorders Total, drug-related AE: % of subjects (Fasted N=45): 2%
Skin and Subcutaneous Tissue Disorders Total, drug-related AE: events (Fasted N=45): 1
Skin and Subcutaneous Tissue Disorders Total, drug-related AE: subjects (Fasted N=45): 1
Vascular Disorders Total, drug-related AE: % of subjects (Fasted N=45): (0%) [0]
Vascular Disorders Total, drug-related AE: events (Fasted N=45): (0%) [0]
Vascular Disorders Total, drug-related AE: subjects (Fasted N=45): 0
All treatment emergent AEs, Total: subjects (Fasted N=45, phosphate): 23 and 24
Abdominal Pain Upper, drug-related AE: % of subjects (Fed N=46): (0%) [0]
Abdominal Pain Upper, drug-related AE: events (Fed N=46): (0%) [0]
Abdominal Pain Upper, drug-related AE: subjects (Fed N=46): 0
Abdominal Pain, drug-related AE: % of subjects (Fed N=46): (0%) [0]
Abdominal Pain, drug-related AE: events (Fed N=46): (0%) [0]
Abdominal Pain, drug-related AE: subjects (Fed N=46): 0
Abdominal Tenderness, drug-related AE: % of subjects (Fed N=46): (0%) [0]
Abdominal Tenderness, drug-related AE: events (Fed N=46): (0%) [0]
Abdominal Tenderness, drug-related AE: subjects (Fed N=46): 0
Acne, drug-related AE: % of subjects (Fed N=46): (0%) [0]
Acne, drug-related AE: events (Fed N=46): (0%) [0]
Acne, drug-related AE: subjects (Fed N=46): 0
All treatment emergent AEs, Mild: % of subjects (Fed N=46): 48%
All treatment emergent AEs, Mild: events (Fed N=46): 38
All treatment emergent AEs, Mild: subjects (Fed N=46): 22
All treatment emergent AEs, Moderate: % of subjects (Fed N=46): 2%
All treatment emergent AEs, Moderate: events (Fed N=46): 1
All treatment emergent AEs, Moderate: subjects (Fed N=46): 1
All treatment emergent AEs, Severe: % of subjects (Fed N=46): 2%
All treatment emergent AEs, Severe: events (Fed N=46): 1
All treatment emergent AEs, Severe: subjects (Fed N=46): 1
All treatment emergent AEs, Total: events (Fed N=46): 40
Constipation, drug-related AE: % of subjects (Fed N=46): 2%
Constipation, drug-related AE: events (Fed N=46): 1
Constipation, drug-related AE: subjects (Fed N=46): 1
